For data set [1], the target named is T1, Muscarinic acetylcholine receptor M4 (Homo sapiens, UniProt P08173).
T1 sequence (P08173 whole entry): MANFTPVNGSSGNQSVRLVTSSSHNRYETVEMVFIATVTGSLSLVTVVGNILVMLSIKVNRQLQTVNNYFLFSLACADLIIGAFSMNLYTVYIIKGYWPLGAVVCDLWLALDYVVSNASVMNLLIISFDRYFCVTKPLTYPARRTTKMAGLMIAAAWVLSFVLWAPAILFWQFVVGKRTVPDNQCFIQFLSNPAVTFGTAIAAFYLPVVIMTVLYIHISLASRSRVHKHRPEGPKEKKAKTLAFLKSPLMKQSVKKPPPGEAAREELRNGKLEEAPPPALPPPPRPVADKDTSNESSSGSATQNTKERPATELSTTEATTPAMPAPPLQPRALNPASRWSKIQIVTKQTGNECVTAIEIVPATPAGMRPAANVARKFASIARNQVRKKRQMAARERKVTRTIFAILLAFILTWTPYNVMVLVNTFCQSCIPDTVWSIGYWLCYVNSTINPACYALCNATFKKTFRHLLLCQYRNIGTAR
The format is cell membranes, CHO-K1, Membrane. As to conditions: cho-k1.

The target of data set [2] is T2, Neuropeptide Y receptor type 1 (Homo sapiens, UniProt P25929).
T2 sequence (P25929 whole entry): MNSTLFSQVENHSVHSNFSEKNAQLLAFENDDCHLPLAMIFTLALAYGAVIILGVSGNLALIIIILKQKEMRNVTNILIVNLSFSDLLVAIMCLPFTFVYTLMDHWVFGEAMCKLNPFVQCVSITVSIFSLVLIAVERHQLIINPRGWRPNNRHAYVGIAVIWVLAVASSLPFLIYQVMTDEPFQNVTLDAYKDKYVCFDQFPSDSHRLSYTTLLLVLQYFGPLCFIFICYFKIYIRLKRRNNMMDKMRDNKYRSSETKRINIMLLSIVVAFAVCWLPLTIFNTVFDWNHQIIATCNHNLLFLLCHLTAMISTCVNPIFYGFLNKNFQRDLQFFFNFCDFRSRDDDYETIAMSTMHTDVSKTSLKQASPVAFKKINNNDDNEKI
The format is cell membranes, Membrane. As to conditions: sk-n-mc.

In data set [3] the target is T3, Nitric oxide synthase, inducible (Mus musculus, UniProt P29477).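 Also: inhibition of iNOS enzyme activity measured with L-arginine as substrate.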
T3 sequence (P29477 whole entry): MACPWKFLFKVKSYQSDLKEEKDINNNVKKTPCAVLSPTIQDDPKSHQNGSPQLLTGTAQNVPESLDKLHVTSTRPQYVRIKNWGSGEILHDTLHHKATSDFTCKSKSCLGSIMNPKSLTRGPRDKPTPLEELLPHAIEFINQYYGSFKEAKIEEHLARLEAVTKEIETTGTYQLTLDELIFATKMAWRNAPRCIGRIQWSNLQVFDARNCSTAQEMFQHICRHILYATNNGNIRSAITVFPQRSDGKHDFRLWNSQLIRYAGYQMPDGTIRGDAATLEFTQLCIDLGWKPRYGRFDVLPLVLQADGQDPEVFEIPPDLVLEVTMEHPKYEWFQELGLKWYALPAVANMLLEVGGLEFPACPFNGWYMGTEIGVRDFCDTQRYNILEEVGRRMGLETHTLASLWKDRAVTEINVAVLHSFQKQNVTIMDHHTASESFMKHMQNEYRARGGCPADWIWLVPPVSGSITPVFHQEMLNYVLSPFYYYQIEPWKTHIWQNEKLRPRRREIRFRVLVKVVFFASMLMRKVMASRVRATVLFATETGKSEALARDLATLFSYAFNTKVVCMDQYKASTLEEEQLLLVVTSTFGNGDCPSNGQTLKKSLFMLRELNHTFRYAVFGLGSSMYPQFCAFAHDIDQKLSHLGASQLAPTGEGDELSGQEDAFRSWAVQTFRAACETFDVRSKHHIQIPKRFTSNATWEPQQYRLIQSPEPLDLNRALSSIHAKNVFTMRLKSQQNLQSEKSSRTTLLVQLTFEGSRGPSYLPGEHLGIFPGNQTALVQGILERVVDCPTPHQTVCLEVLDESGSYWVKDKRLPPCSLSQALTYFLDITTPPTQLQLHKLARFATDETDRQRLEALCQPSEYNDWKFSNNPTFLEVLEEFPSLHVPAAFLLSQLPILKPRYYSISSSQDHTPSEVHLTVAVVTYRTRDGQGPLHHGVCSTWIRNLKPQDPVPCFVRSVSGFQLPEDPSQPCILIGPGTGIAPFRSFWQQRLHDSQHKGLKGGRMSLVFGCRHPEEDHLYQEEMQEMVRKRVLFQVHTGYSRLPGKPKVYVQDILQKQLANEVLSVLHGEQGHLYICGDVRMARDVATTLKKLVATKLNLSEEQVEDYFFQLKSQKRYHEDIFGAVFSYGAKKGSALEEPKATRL
Details: species or system Escherichia coli.

The target of data set [4] is Delta-type opioid receptor (Homo sapiens, UniProt P41143). The format is cell membranes, HEK293, Membrane. As to conditions: hek293.
Another data set addresses T4, Adenosine receptor A3 (Homo sapiens, UniProt P0DMS8).
T4 sequence (P0DMS8 whole entry): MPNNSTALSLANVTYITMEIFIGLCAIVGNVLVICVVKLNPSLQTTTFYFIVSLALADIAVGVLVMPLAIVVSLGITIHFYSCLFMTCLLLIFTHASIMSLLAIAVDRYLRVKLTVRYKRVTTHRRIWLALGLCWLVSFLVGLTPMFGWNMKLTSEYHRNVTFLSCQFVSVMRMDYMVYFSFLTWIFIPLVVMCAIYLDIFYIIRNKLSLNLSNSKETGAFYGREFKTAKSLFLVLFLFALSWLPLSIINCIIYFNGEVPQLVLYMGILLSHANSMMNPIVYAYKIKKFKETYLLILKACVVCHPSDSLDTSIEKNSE
The format is cell membranes, CHO-K1, Membrane.

In a further data set the target is Cytochrome P450 3A4 (Homo sapiens, UniProt P08684). As to conditions: bti-tn-5b1-4.
For a further data set, the target named is Estrogen receptor beta (Homo sapiens, UniProt Q92731). As to conditions: sf9.

The source of these data is ChEMBL document CHEMBL1909046, “DrugMatrix in vitro pharmacology data”.

Where a SMILES comes first, the peptide text is derived from it. Bridges are numbered along the chain shown (N, C = ends). [ ]: non-standard residue; d: D form. The star is where a group is joined. Threoninol(2S,3R) = C[C@@H](O)[C@H](CO)N*
Also: in other assays of this panel Not Active means under 50% inhibition at 10 µM.

Delta-type opioid receptor, sequence (P41143 whole entry): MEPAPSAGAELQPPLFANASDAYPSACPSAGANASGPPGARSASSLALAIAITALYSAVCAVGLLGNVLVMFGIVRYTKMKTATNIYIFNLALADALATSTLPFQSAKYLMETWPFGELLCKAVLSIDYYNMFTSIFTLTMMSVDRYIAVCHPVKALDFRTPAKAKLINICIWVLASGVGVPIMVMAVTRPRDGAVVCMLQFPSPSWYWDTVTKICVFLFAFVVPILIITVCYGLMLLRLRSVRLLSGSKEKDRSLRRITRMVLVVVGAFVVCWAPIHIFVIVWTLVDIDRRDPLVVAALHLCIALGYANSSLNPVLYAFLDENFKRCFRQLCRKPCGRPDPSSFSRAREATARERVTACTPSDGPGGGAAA
Cytochrome P450 3A4, sequence (P08684 whole entry): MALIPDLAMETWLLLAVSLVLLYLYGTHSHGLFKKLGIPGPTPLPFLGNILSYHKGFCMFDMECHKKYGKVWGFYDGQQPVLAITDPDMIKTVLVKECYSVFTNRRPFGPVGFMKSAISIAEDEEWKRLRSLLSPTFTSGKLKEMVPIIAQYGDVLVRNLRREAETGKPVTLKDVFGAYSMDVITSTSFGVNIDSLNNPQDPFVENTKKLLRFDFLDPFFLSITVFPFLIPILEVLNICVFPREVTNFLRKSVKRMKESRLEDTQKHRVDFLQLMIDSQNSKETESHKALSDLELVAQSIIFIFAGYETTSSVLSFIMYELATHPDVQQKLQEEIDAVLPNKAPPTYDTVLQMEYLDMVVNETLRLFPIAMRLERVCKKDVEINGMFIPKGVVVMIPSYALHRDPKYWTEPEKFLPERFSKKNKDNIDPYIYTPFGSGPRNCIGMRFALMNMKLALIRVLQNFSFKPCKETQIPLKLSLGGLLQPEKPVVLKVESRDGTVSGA
Estrogen receptor beta, sequence (Q92731 whole entry): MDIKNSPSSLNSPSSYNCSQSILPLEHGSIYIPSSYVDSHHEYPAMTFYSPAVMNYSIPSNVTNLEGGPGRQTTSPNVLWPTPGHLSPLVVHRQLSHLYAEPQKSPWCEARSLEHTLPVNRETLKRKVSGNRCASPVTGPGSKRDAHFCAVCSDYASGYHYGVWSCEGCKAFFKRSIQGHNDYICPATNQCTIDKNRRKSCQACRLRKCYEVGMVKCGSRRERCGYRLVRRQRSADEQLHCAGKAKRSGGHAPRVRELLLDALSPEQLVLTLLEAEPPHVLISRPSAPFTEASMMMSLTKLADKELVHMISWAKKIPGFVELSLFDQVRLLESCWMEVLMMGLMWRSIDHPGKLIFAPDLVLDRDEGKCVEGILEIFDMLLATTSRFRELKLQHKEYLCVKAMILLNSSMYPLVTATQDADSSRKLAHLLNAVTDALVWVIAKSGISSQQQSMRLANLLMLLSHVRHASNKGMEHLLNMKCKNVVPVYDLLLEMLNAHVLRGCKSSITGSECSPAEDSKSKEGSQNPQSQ

What is called IC50 is the concentration needed to halve the response being measured. Broadly, the Ki is the equilibrium dissociation constant of an inhibitor or competing ligand from its target. On to `C[C@@H](O)[C@H](CO)NC(=O)[C@@H]1CSSC[C@H](NC(=O)[C@H](N)Cc2ccccc2)C(=O)N[C@@H](Cc2ccccc2)C(=O)N[C@H](Cc2c[nH]c3ccccc23)C(=O)N[C@@H](CCCCN)C(=O)N[C@@H]([C@@H](C)O)C(=O)N1` (H-[dF]CF[dW]KTC-{Threoninol(2S,3R)}; disulfide 2-7), for which the IC50 entry (in data set [1]; in data set [2]; in data set [3]; in data set [4]; at Adenosine receptor A3 (cho-k1); against Cytochrome P450 3A4) was “Not Active” throughout. Moreover, the half-inhibitory concentration (IC50) result on Estrogen receptor beta is “Not Active”. Besides, on Cytochrome P450 3A4, the Ki entry is “Not Active”.

As for `S=C=Nc1cccc2ccccc12` [1-NAPHTHYLISOTHIOCYANATE], the IC50 entry is “Not Active” in data set [1]; “Not Active” in data set [2]; “Not Active” in data set [3]; “Not Active” in data set [4]; 6.1 µM at Adenosine receptor A3 (read-out: IC50); “Not Active” on Cytochrome P450 3A4. The IC50 entry on Estrogen receptor beta is given as “Not Active”. In addition, the results for the Ki at Adenosine receptor A3 (read-out: Ki) and at Cytochrome P450 3A4 were 3.45 µM and “Not Active”, respectively.

For the compound `C[C@](O)(CS(=O)(=O)c1ccc(F)cc1)C(=O)Nc1ccc(C#N)c(C(F)(F)F)c1` [(R)-BICALUTAMIDE], the IC50 entry (in data set [1]; in data set [2]; in data set [3]; in data set [4]; against Adenosine receptor A3 (cho-k1); against Cytochrome P450 3A4) was “Not Active” in each case. For the same compound, the IC50 entry at Estrogen receptor beta was “Not Active”. The inhibition constant Ki entry at Cytochrome P450 3A4 is listed as “Not Active”.

`CCCC(=O)Nc1ccc(OCC(O)CNC(C)C)c(C(C)=O)c1` (centres undefined) [ACEBUTOLOL]: the IC50 entry (in data set [1]; in data set [2]; in data set [3]; in data set [4]; against Adenosine receptor A3 (cho-k1); against Cytochrome P450 3A4) was “Not Active” each time. Moreover, the half-maximal inhibitory concentration (IC50) result on Estrogen receptor beta is “Not Active”. Moreover, on Cytochrome P450 3A4, the Ki entry is given as “Not Active”.

As to `CC(=O)Nc1ccc(O)cc1` [ACETAMINOPHEN], the IC50 result (in data set [1]; in data set [2]; in data set [3]; in data set [4]; against Adenosine receptor A3 (cho-k1); against Cytochrome P450 3A4) was “Not Active” throughout. Besides, the concentration for half-maximal inhibition (IC50) result on Estrogen receptor beta is “Not Active”. The Ki entry at Cytochrome P450 3A4 is on record as “Not Active”.

Consider `COc1cc2c(c3oc(=O)c4c(c13)CCC4=O)[C@@H]1C=CO[C@@H]1O2` [AFLATOXIN], for which the IC50 entry (in data set [1]; in data set [2]; in data set [3]; in data set [4]; against Adenosine receptor A3 (cho-k1); against Cytochrome P450 3A4) was “Not Active” each time. Further, on Estrogen receptor beta, the IC50 entry is on record as “Not Active”. Besides, the Ki entry (in data set [1]; in data set [2]; in data set [3]; in data set [4]; on Adenosine receptor A3 (cho-k1); on Cytochrome P450 3A4) was “Not Active” each time. The Ki result on Estrogen receptor beta is “Not Active”.

As for `N=C(N)NC(=O)c1nc(Cl)c(N)nc1N` [AMILORIDE], the concentration for half-maximal inhibition (IC50) entry (in data set [1]; in data set [2]; in data set [3]; in data set [4]; at Adenosine receptor A3 (cho-k1); against Cytochrome P450 3A4) was “Not Active” throughout. Moreover, the concentration for half-maximal inhibition (IC50) result on Estrogen receptor beta is reported as “Not Active”. In addition, the Ki result at Cytochrome P450 3A4 is reported as “Not Active”.

In the case of `Cc1cc(=O)n(-c2ccccc2)n1C` [ANTIPYRINE], the IC50 result (in data set [1]; in data set [2]; in data set [3]; in data set [4]; on Adenosine receptor A3 (cho-k1); on Cytochrome P450 3A4) was “Not Active” throughout. Besides, the IC50 entry against Estrogen receptor beta is “Not Active”. On Cytochrome P450 3A4, the Ki result is listed as “Not Active”.

For the compound `CCOC(=O)[C@H](CCc1ccccc1)N[C@H]1CCc2ccccc2N(CC(=O)O)C1=O` [BENAZEPRIL], the IC50 result (in data set [1]; in data set [2]; in data set [3]; in data set [4]; at Adenosine receptor A3 (cho-k1); at Cytochrome P450 3A4) was “Not Active” throughout. The IC50 result on Estrogen receptor beta is reported as “Not Active”. The inhibition constant (Ki) entry at Cytochrome P450 3A4 was “Not Active”.

In the case of `Nc1c(CC(=O)O)cccc1C(=O)c1ccc(Br)cc1` [BROMFENAC], the IC50 result (in data set [1]; in data set [2]; in data set [3]; in data set [4]; against Adenosine receptor A3 (cho-k1); against Cytochrome P450 3A4) was “Not Active” throughout. For the same compound, on Estrogen receptor beta, the IC50 entry is given as “Not Active”. Also, the inhibitory constant (Ki) entry on Cytochrome P450 3A4 is reported as “Not Active”.

As to `CCCCN1CCCCC1C(=O)Nc1c(C)cccc1C.Cl` (centres undefined) [BUPIVACAINE HYDROCHLORIDE], the IC50 result (in data set [1]; in data set [2]; in data set [3]; in data set [4]; at Adenosine receptor A3 (cho-k1); against Cytochrome P450 3A4) was “Not Active” each time. In addition, the concentration for half-maximal inhibition (IC50) entry against Estrogen receptor beta was “Not Active”. Besides, on Cytochrome P450 3A4, the inhibition constant (Ki) result was “Not Active”.

With `ClC(Cl)Cl` [CHLOROFORM], the concentration for half-maximal inhibition (IC50) result (in data set [1]; in data set [2]; in data set [3]; in data set [4]; against Adenosine receptor A3 (cho-k1); at Cytochrome P450 3A4) was “Not Active” each time. The half-maximal inhibitory concentration (IC50) result at Estrogen receptor beta was “Not Active”. Besides, at Cytochrome P450 3A4, the Ki result is reported as “Not Active”.

Turning to `C=C1CC[C@H](O)C/C1=C/C=C1\CCC[C@]2(C)[C@@H]([C@H](C)CCCC(C)C)CC[C@@H]12` [CHOLECALCIFEROL], the IC50 result (in data set [1]; in data set [2]; in data set [3]; in data set [4]; against Adenosine receptor A3 (cho-k1); against Cytochrome P450 3A4) was “Not Active” in each case. Further, the IC50 result against Estrogen receptor beta is given as “Not Active”. On Cytochrome P450 3A4, the Ki entry was “Not Active”.

On to `CC(=O)OCC(=O)[C@@]1(O)CC[C@H]2[C@@H]3CCC4=CC(=O)CC[C@]4(C)[C@H]3C(=O)C[C@@]21C` [CORTISONE ACETATE], for which the concentration for half-maximal inhibition (IC50) result (in data set [1]; in data set [2]; in data set [3]; in data set [4]; on Adenosine receptor A3 (cho-k1); against Cytochrome P450 3A4) was “Not Active” each time. The IC50 entry on Estrogen receptor beta is reported as “Not Active”. In addition, the Ki entry at Cytochrome P450 3A4 is “Not Active”.
